Source: US20250057930A1, “ANAPLASTIC LYMPHOMA KINASE (ALK) CANCER VACCINES AND METHODS OF USE THEREOF” (The Children's Medical Center Corporation, priority 2022, published 2025)
Ends that are not written are not given here.

Assays:
[1] = tested on: ALK-rearranged (ALK^+) NSCLC; settings: first-line treatment; cited from earlier work
[2] = tested on: Ad-EA mice (mEml4-Alk rearranged lung tumor); assay: Lung tumor volume by MRI and survival in Ad-EA mice; type: in vivo, mouse; settings: crizotinib 40 mg/kg or lorlatinib 2 mg/kg, MRI
From the text: EML4-ALK transgenic (Tg) mice, which express the human EML4-ALK (E13;A20, human variant 1) driven by the SP-C promoter (henceforth referred as hEML4-ALK Tg mice), and BALB/c mice infected intratracheally with adenovirus carrying the CRISPR/Cas9 system to induce in vivo the Eml4-Alk rearrangement (E14;A20, mouse variant 1) (henceforth referred as Ad-EA mice). […] In these models, magnetic resonance imaging (MRI) (FIG. 1B) allowed precise cohort stratification and tumor follow-up.
Anatomical T2-weighted coronal images were acquired with a respiratory-triggered multislice fast spin echo RARE sequence (TR=4 s, TE=4.5 ms, Rare Factor (RF)=16, FOV=30 mm^2, Matrix=256×256, slices=16-20, slice thickness=1 mm, 2 averages, providing an in-plane spatial resolution of 117 μm) with a 7T MRI (Bruker Advance III, Ettlingen, Germany) scanner equipped with a quadrature 1H coil. Animals were anesthetized by intraperitoneal injection of a combination of ROMPUN® (Bayer, 5 mg/kg) and ZOLETIL 100® (Laboratoires Virbac, 20 mg/kg); breathing was monitored during acquisition of the MR images with a respiratory sensor (SA Instruments, Inc.). Tumor volumes and numbers of masses calculations were performed by manual segmentation (slice by slice contouring) with ITK-SNAP software (www.itksnap.org).
Syngeneic mice models transplanted with tumor cells were treated intraperitoneally with 200 μg of anti-PD-1 and/or anti-CTLA-4 (clone 9D9, Bioxcell), on days 3, 6, and 9 post-tumor transplantation (3 injections/per mouse).

[3] = Toxicity of the ALK vaccine in HLA-A*02:01 and HLA-B*07:02 transgenic mice; type: in vivo, mouse; settings: for toxicity in vaccinated mice: HLA-A*02:01 (AMLDLLHVA) and HLA-B*07:02 (IVRCIGVSL) transgenic mice, CDN adjuvant; for CD8^+ T cells in the hypothalamus region / H&E and pan-HLA immunohistochemistry staining of the hypothalamus region / weight gain: mouse, in vivo
From the text: Transgenic mice (HLA-A*02:01 and HLA-1B*07:02) were vaccinated as shown in the schematic in FIG. 18A with either […] (SEQ ID NO: 7) or […] (SEQ ID NO: 4) peptides, respectively, and cyclic dinucleotides (CDN) adjuvant. Weight measurements were taken at discrete time points. Next, splenocytes were isolated and assayed and brain tissue was sectioned and imaged (FIG. 18C).

[4] = tested on: ALK-specific CD8+ T cells; assay: Vaccination of HLA B*07:02 transgenic mice, IFN-γ ELISPOT of splenocytes; type: in vivo, mouse; settings: short and long peptide groups pooled, of 12 mice
From the text: Transgenic mice expressing the human HLA B*07:02 were vaccinated with different peptides containing the core epitopes […] (SEQ ID NO: 4) or […] (SEQ ID NO: 3): […] (SEQ ID NO: 4) (IVRshort), […] (SEQ ID NO: 1) (IVRlong), […] (SEQ ID NO: 3) (RPRshort), […] (SEQ ID NO: 2) (RPRlong). ALK-specific CD8+ T cells responses were detected in 12/12 (100%) mice vaccinated with either the IVRshort peptide or the IVRlong peptide and in 6/12 (50%) of mice vaccinated with either the PRPshort peptide or the RPRlong (FIG. 7D). Finally, ALK-specific CD8+ T cells responses were also detected in peripheral blood mononuclear cells (PBMCs) from 3/6 (50%) ALK+ NSCLC patients when stimulated with the […] (SEQ ID NO: 4) peptide but not with the […] (SEQ ID NO: 3) peptide (FIGS. 7E and 16B; Tables 6-7). Overall, four immunogenic ALK peptides in the context of the HLA A*02:01 and B*07:02 alleles were identified by mass spectrometry that can pave the way toward the design of a human ALK vaccine.
The interferon-γ release enzyme-linked immune absorbent spot (ELISPOT) assay was performed using a commercial kit (Mouse IFN-γ ELISPOT, Mabtech, Stockholm, Sweden) according to the manufacturer's instructions. Briefly, the ELISPOT plate was prepared in sterile conditions and washed with sterile PBS (200 μL/well) for 5 times. Consecutively, the plate was conditioned with fresh DMEM medium (200 μL/well) contained 10% of the same fetal bovine serum used for the splenocytes suspension and incubated for 30 minutes at room temperature. After incubation, the medium was discarded and 2.5×10^5 splenocytes were plated in each well together with the appropriate stimuli. The plate was incubated over/night at 37° C. in humidified conditions with 5% C02. The day after, cells were discarded, and the plate was washed 5 times with PBS. Biotinylated detection anti-IFN-γ mAb (1 μg/mL) was added into the wells, followed by 2 hours of incubation at room temperature. […] All plates were evaluated by a computer assisted ELISPOT reader (CTL Immunospot analyzer, OH, USA).

[5] = tested on: splenocytes isolated from mice vaccinated with ALK-DNA vaccine; assay: IFN-γ ELISPOT screening of synthetic long peptides on splenocytes of ALK-DNA vaccinated mice; type: cell-based, mouse; settings: ALK-DNA vaccine group, average ±SEM
Procedure: Despite the known immunogenicity of the ALK protein, the data imply that ALK^+ mouse lung tumors induce an immune response insufficient to be activated by immune checkpoint inhibitor (ICI) treatment. Therefore, it was decided to directly investigate anti-ALK immune responses during ICI treatment by identifying the specific ALK peptides that induce T-cell mediated immune responses in mouse models. To identify the ALK-specific T-cell epitopes, an in vitro peptide screening was performed. A set of 21 overlapping synthetic long peptides (SLP), that encompassed the ALK cytoplasmic domain (FIG. 9A; Table 1), was incubated with splenocytes isolated from mice vaccinated with a vector encoding most of the ALK cytoplasmic domain (ALK-DNA vaccine) as previously described in Chiarle R, Martinengo C, Mastini C, Ambrogio C, D'Escamard V, Fori G, et al. The anaplastic lymphoma kinase is an effective oncoantigen for lymphoma vaccination.
The interferon-γ release enzyme-linked immune absorbent spot (ELISPOT) assay was performed using a commercial kit (Mouse IFN-γ ELISPOT, Mabtech, Stockholm, Sweden) according to the manufacturer's instructions. Briefly, the ELISPOT plate was prepared in sterile conditions and washed with sterile PBS (200 μL/well) for 5 times. […] All plates were evaluated by a computer assisted ELISPOT reader (CTL Immunospot analyzer, OH, USA).

[6] = tested on: CD8^+ T cells from NSCLC patients; assay: IFN-γ ELISPOT of patient CD8^+ T cells expanded with ALK peptides; type: cell-based, human
Procedure: Non-small cell lung cancer (NSCLC) patients, at the Dana-Farber Cancer Institute, consented to an institutional review board (IRB)-approved correlative research protocol that allowed for review of medical records and sample collection. Lung cancer mutation status was determined using standard CLIA-certified clinical assays in the Center for Advanced Molecular Diagnostics at Brigham and Women's Hospital. For each patient, 10 mL of whole blood was collected into K3-EDTA tubes, and peripheral blood mononuclear cells (PBMCs) (peripheral blood mononuclear cells) were isolated with Ficoll-Paque Plus density separation (GE Healthcare), and consequently frozen until use.
Frozen PBMCs from patients with NSCLC were thawed, resuspended in cold RPMI containing 3% of human AB heat-inactivated serum (Sigma Aldrich), and cultured in a T-175 culture flask for 50 min. at 37° C. in 5% C02 to induce the attachment of CD14^+ monocytes to the plastic. The remaining floating PBMCs were removed with gentle washes of PBS and warm media. Monocytes were then cultured in RPMI containing 3% of human AB heat-inactivated serum, 2% Penicillin/Streptomycin, 1% Glutamine, and 25 nM HEPES with GM-CSF (120 ng/mL, Preprotech) and IL-4 (70 ng/mL, Preprotech). Fresh GM_CSF and IL-4 were added on days 3 and 5. On day 6, Poly I:C (30 μg/mL, Sigma Aldrich) was added for 24 hours to induce DCs maturation.
B cells were expanded using the CD40 system (68,69). Briefly, NIH-3T3-CD40L cells were irradiated (9600 rads) and plated in a 6 well plate (400.000 cells/well) without Gentamycin. The following day, 8×10^6 PBMCs were resuspended in 4 mL of IMDM (Glutamine, Hepes, Gibco) containing 10% human AB serum heat-inactivated (Sigma Aldrich), Transferrin (50 μg/ml, Lonza), Insulin (5 μg/ml, BioXtra), Cyclosporine A (5.5×10^−7M, Sigma Aldrich), IL-4 (2 ng/ml, Preprotech) and Gentamycin (15 μg/ml, Gibco), and co-cultured with the irradiated NIH-3T3-CD40L for 5 days. PBMCs were then counted and cultured at the same concentration together with newly irradiated NIH-3T3-CD40L for 3 more days. After 12 days 95% of the cells were CD19^+ and could be expanded similarly every 3-4 days at a concentration of 10^6/mL. B cells were always used after 15 days of culture.
CD8^+ T cells were purified using magnetic beads (CD8^+ T cell isolation Kit, Miltenyi) and co-cultured with DCs (20:1; around 10^6 CD8^+ T cells:50.000 DCs) in AIM V media (Gibco) with 5% human AB heat-inactivated serum (Sigma Aldrich), 20 units/mL IL-2 (Preprotech) and 10 ng/mL IL-7 (Preprotech). Before co-culture, DCs were pulsed with the 10 μg/mL of the desired peptide in AIM V media without serum at 37° C. in 5% CO2. Fresh IL-2 and IL-7 were added every 3-4 days. After 7 days, 3-4 million PBMCs CD8^+ T cells were co-cultured with peptide-pulsed DCs and cytokines (20-40:1 ratio). 3rd and 4th stimulation stimulations were done using 4-5 million CD8^+ T cells and peptide-pulsed irradiated B cells (ratio 4:1, 3000 rads) and fresh IL2 and IL7 (days 14 and 21). CD8^+ T-cell responses were then evaluated in an IFN-γ-ELISPOT assay (Mabtech) using peptide-pulsed B cells (1:1 ratio) as target cells. CD8^+ T cells were purified the day before the ELISPOT assay and rested overnight in media without cytokines. The ELISPOT was performed with FBS heat inactivated as recommended by the manufacturer. When the human material was limited, PBMCs or B0 cells were used in the first round of stimulation.

COc1cc(N2CCC(N3CCN(C)CC3)CC2)ccc1Nc1ncc(Cl)c(Nc2ccccc2P(C)(C)=O)n1 [brigatinib]
time to disease progression in most patients [1]: three

C[C@@H](Oc1cc(-c2cnn(C3CCNCC3)c2)cnc1N)c1c(Cl)ccc(F)c1Cl [crizotinib]
tumor response at the end of treatment [2]: stabilized tumors

AMLDLLHVA
toxicity in vaccinated mice [3]: no detectable toxicity | CD8^+ T cells in the hypothalamus region [3]: Not a significant amount | H&E and pan-HLA immunohistochemistry staining of the hypothalamus region [3]: healthy tissue | weight gain [3]: the same as the control mice

FNHQNIVRCIGVSL [IVRlong]
mice with ALK-specific CD8+ T cells responses detected [4]: 100%

GGDLKSFLRETRPRPSQPSSLAM [RPRlong]
mice with ALK-specific CD8+ T cells responses detected [4]: 50%

GYQQQGLPLEAATAPGAGHYEDTILKSKNSMNQPGP [SLP21]
number of IFN-γ-spots [5]: Weaker responses

IVRCIGVSL
toxicity in vaccinated mice [3]: no detectable toxicity | CD8^+ T cells in the hypothalamus region [3]: Not a significant amount | H&E and pan-HLA immunohistochemistry staining of the hypothalamus region [3]: healthy tissue | weight gain [3]: the same as the control mice

LTANMKEVPLFRLRHFPCGNVNYGYQQQGLPLEAAT [SLP20]
number of IFN-γ-spots [5]: Weaker responses

RPRPSQPSSL
mice with ALK-specific CD8+ T cells responses detected [4]: 50% | Average Spots Forming Units (2 wells)/20 000 CD8^+ T cells ([6]; Patient 1 (ALK), IVRCIGVSL expanded): 5.5 Spots Forming Units/20 000 CD8 | Average Spots Forming Units (2 wells)/20 000 CD8^+ T cells ([6]; Patient 1 (ALK), RPRPSQPSSL expanded): 4.5 Spots Forming Units/20 000 CD8 | Average Spots Forming Units (2 wells)/20 000 CD8^+ T cells ([6]; Patient 2 (ALK), IVRCIGVSL expanded): 27.5 Spots Forming Units/20 000 CD8 | Average Spots Forming Units (2 wells)/20 000 CD8^+ T cells ([6]; Patient 2 (ALK), RPRPSQPSSL expanded): 0 Spots Forming Units/20 000 CD8 | Average Spots Forming Units (2 wells)/20 000 CD8^+ T cells ([6]; Patient 3 (ALK), IVRCIGVSL expanded): 6.5 Spots Forming Units/20 000 CD8 | Average Spots Forming Units (2 wells)/20 000 CD8^+ T cells ([6]; Patient 3 (ALK), RPRPSQPSSL expanded): 3 Spots Forming Units/20 000 CD8 | Average Spots Forming Units (2 wells)/20 000 CD8^+ T cells ([6]; Patient 4 (ALK), RPRPSQPSSL expanded): 2 Spots Forming Units/20 000 CD8 | Average Spots Forming Units (2 wells)/20 000 CD8^+ T cells ([6]; Patient 5 (KRASG12V), RPRPSQPSSL expanded): 1 Spots Forming Units/20 000 CD8 | Average Spots Forming Units (2 wells)/20 000 CD8^+ T cells ([6]; Patient 6 (EGFR del exon19), IVRCIGVSL expanded): 1.5 Spots Forming Units/20 000 CD8 | Average Spots Forming Units (2 wells)/20 000 CD8^+ T cells ([6]; Patient 6 (EGFR del exon19), RPRPSQPSSL expanded): 10 Spots Forming Units/20 000 CD8 | Average Spots Forming Units (2 wells)/20 000 CD8^+ T cells ([6]; Patient 7 (KRASG12D), IVRCIGVSL expanded): 1 Spots Forming Units/20 000 CD8 | Average Spots Forming Units (2 wells)/20 000 CD8^+ T cells ([6]; Patient 7 (KRASG12D), RPRPSQPSSL expanded): 3 Spots Forming Units/20 000 CD8 | Average Spots Forming Units (2 wells)/20 000 CD8^+ T cells ([6]; Patient 8 (EGFR del exon19), IVRCIGVSL expanded): 2 Spots Forming Units/20 000 CD8 | Average Spots Forming Units (2 wells)/20 000 CD8^+ T cells ([6]; Patient 8 (EGFR del exon19), RPRPSQPSSL expanded): 10 Spots Forming Units/20 000 CD8
